Test results: publication PMC6934184, “Selective DNA-PKcs inhibition extends the therapeutic index of localized radiotherapy and chemotherapy” (The Journal of Clinical Investigation, 2019)

Target: T1, MLCK (MLCK2) (Homo sapiens, UniProt Q32MK0)
T1 construct: purchased Thermo Fisher Scientific (Life Technologies) SelectScreen
Assay: SelectScreen LanthaScreen
Format: binding
Conditions: read-out: % displacement
Outline: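 SelectScreen broad panel; activity (Z'LYTE, Adapta) plus binding formats. ATP: Km app for CSF1R Z'LYTE; 10 for CAMK1 Adapta. Readout = % per kinase.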

T1 sequence (Q32MK0 whole entry): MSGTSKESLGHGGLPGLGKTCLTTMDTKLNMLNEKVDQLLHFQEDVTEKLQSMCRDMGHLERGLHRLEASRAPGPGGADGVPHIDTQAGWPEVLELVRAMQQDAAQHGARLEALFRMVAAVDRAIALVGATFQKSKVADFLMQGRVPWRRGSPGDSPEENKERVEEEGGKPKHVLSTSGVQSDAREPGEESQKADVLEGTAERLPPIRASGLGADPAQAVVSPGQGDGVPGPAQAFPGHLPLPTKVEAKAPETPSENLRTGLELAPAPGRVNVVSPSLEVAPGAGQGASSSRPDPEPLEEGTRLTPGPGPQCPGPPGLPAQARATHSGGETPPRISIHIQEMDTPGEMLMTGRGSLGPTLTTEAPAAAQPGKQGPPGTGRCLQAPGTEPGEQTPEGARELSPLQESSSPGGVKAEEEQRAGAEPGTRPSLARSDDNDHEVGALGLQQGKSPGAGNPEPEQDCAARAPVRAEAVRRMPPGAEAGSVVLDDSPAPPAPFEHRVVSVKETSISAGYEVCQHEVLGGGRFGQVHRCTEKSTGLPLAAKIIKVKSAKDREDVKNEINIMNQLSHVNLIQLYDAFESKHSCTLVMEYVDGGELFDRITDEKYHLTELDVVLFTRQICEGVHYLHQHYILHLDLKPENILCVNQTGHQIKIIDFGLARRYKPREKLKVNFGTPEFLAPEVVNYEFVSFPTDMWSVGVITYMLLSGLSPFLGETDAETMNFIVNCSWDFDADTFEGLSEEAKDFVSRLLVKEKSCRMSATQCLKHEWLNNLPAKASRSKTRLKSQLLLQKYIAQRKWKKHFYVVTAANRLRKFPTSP

CN(C(=O)CN1CCOCC1)c1ccc2sc3c(-c4cccc5c(=O)cc(N6CC7CCC(C6)O7)oc45)cccc3c2c1 [NU5455]
inhibition at 1 µM: 1.5%
